Assay results as given in US20250188085A1, “COMPOSITIONS AND METHODS FOR INHIBITION OF RAS” (THERAS, INC., priority 2022, published 2025).
Like-named read-outs stand apart in the source and are kept apart here.

Columns and labels:
[1] = target: T1, GppNHp-loaded KRAS4b (amino acids 1-169) G12C/C118S protein (Homo sapiens, UniProt P01116, C118S/G12C); assay: Covalent cysteine 12 modification by MALDI-TOF MS, GppNHp-loaded KRAS G12C; type: binding; conditions: 15 minutes reaction time point
T1 construct: KRAS4b (amino acids 1-169) G12C/C118S protein; made in house
Summary of the method: (§1)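 KRAS4b 1-169 G12C/C118S loaded with GDP, GppNHp or GTP was used at 1 μM in 20 mM HEPES, 150 mM NaCl, 1 mM MgCl2, pH 7.3, and incubated with compound (5 mM DMSO stock) at room temperature in the dark. % modification at 15 min is adduct peak height over total protein peak heights by linear-mode MALDI-TOF.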

[2] = target: T2, GTP-loaded KRAS4b (amino acids 1-169) G12C/C118S protein (Homo sapiens, UniProt P01116, C118S/G12C); assay: Covalent cysteine 12 modification by MALDI-TOF MS, GTP-loaded KRAS G12C; type: binding; conditions: 15 minutes reaction time point
T2 construct: KRAS4b (amino acids 1-169) G12C/C118S protein; made in house
Summary of the method: as §1

[3] = target: T3, GDP-loaded KRAS4b (amino acids 1-169) G12C/C118S protein (Homo sapiens, UniProt P01116, C118S/G12C); assay: Covalent cysteine 12 modification by MALDI-TOF MS, GDP-loaded KRAS G12C; type: binding; conditions: 15 minutes reaction time point
T3 construct: KRAS4b (amino acids 1-169) G12C/C118S protein; made in house
Summary of the method: as §1

[4] = target: T4, Avi-KRAS G12C (1-169) GppNHp/RAF1 RBD-3×FLAG (52-151) (Homo sapiens, UniProt P01116, G12C); assay: Raf1 RBD-KRAS G12C-GppNHp disruption (protein:protein interaction HTRF assay); type: biochemical
T4 construct: Avi-KRAS G12C (1-169) GppNHp/RAF1 RBD-3×FLAG (52-151)
Summary of the method: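 HTRF measuring disruption of 50 nM Avi-KRAS G12C (1-169) loaded with GppNHp binding RAF1 RBD-3×FLAG (52-151), in pH 7.5 Tris buffer with 5 mM MgCl2, 0.1% BSA, 10% DMSO. KRAS preincubated with compound 1 h, then RBD 1 h, then detection reagents 1 h, all at room temperature. Compound titration 30-0.02 μM; activity expressed as percent of DMSO control.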

[5] = test system: pERK in NCI-H358 cells; assay: Cell-based pERK HTRF assay; conditions: 30 min incubation, read-out: pERK in NCI-H358 cell inhibition IC50
Summary of the method: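 Cells seeded at 4×10^4/well in RPMI with 10% FBS, then next day treated for 30 min with a 9-point, 3-fold series from 75 μM top concentration at 0.25% DMSO. Lysates were read for pERK by HTRF (d2/Eu cryptate antibodies) after 4–24 h at room temperature, emission at 615 nm.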

SMILES | GppNHp-KRAS G12C percent of modification [1] | GTP-KRAS G12C percent of modification [2] | GDP-KRAS G12C percent of modification [3] | IC50 [4] [nM] | IC50 ([5]; Homo sapiens, NCI-H358, 0.5 h) [nM] | IC50 [5] [nM]
C=CC(=O)N1CC[C@@H](Oc2nc(OC[C@@]34CCCN3C[C@H](F)C4)nc3c(F)c(-c4c(F)cc(F)c5sc(N)nc45)ncc23)C1 [Compound 57] | C (10%≤modification <50%) | D (percent of modification <10%) | A (percent of modification ≥70%) | 500 to 5000 | 100 to 1000 | 
C=CC(=O)N1CC[C@@H](Oc2nc(OC[C@@]34CCCN3C[C@H](F)C4)nc3c(F)c(-c4ccc(F)c5sc(N)c(C#N)c45)c(C(F)(F)F)cc23)[C@@H]1COC [Compound 127] | D (percent of modification <10%) | D (percent of modification <10%) | B (50≤percent of modification <70%) | ≤ 500 | 100 to 1000 | 
C=CC(=O)N1CCC(Oc2nc(OC[C@@]34CCCN3C[C@H](F)C4)nc3c(F)c(-c4ccc(F)c5sc(N)nc45)c(C(F)(F)F)cc23)C1(C)C (stereo partly shown) [Compound 45] | C (10%≤modification <50%) | C (10%≤modification <50%) | B (50≤percent of modification <70%) | ≤ 500 | ≤ 100 | 
C=CC(=O)N1C[C@H](Oc2nc(OC[C@@]34CCCN3C[C@H](F)C4)nc3cc(-c4ccc(F)c5sc(N)c(C#N)c45)c(C(F)(F)F)cc23)[C@@H](F)C1 [Compound 49] | B (50≤percent of modification <70%) | C (10%≤modification <50%) | C (10%≤modification <50%) | ≤ 500 | ≤ 100 | 
C=CC(=O)N1CC[C@@H](Oc2nc(OC[C@@]34CCCN3C[C@H](F)C4)nc3c(F)c(-c4ccc(F)c5sc(N)c(C#N)c45)c(C(F)(F)F)cc23)[C@H]1C [Compound 62, 4-(4-(((2R,3R)-1-acryloyl-2-methylpyrrolidin-3-yl)oxy)-8-fluoro-2-(((2R,7aS)-2-fluorotetrahydro-1H-pyrrolizin-7a (5H)-yl)methoxy)-6-(trifluoromethyl)quinazolin-7-yl)-2-amino-7-fluorobenzo[b]thiophene-3-carbonitrile] | B (50≤percent of modification <70%) | C (10%≤modification <50%) | B (50≤percent of modification <70%) | ≤ 500 | ≤ 100 | 
C=CC(=O)N1CC[C@@H](Oc2nc(OC[C@@]34CCCN3C[C@H](F)C4)nc3c(F)c(-c4ccc(F)c5sc(N)c(C#N)c45)ccc23)[C@@H]1CC [Compound 116] | D (percent of modification <10%) | D (percent of modification <10%) | C (10%≤modification <50%) | > 20000 | > 1000 | 
C=CC(=O)N1CC[C@@H](Oc2nc(OC[C@@]34CCCN3C[C@H](F)C4)nc3c(C#N)c(-c4ccc(F)c5sc(N)c(C#N)c45)ccc23)[C@H]1C [Compound 104] | C (10%≤modification <50%) | C (10%≤modification <50%) | A (percent of modification ≥70%) | ≤ 500 | 100 to 1000 | 
C=CC(=O)N1C[C@H](Oc2nc(OC[C@@]34CCCN3C[C@H](F)C4)nc3c(F)c(-c4ccc(F)c5sc(N)c(C#N)c45)c(C(F)(F)F)cc23)C[C@@H]1COC (atropisomer, axis not shown) [Compound 86] | D (percent of modification <10%) | D (percent of modification <10%) | D (percent of modification <10%) | 5000 to 20000 |  | > 1000
C=CC(=O)N1C[C@H](Oc2nc(OC[C@@]34CCCN3C[C@H](F)C4)nc3c(F)c(-c4ccc(F)c5sc(N)c(C#N)c45)c(C(F)(F)F)cc23)C[C@H]1COC (atropisomer, axis not shown) [Compound 89] | B (50≤percent of modification <70%) | B (50≤percent of modification <70%) | A (percent of modification ≥70%) | ≤ 500 |  | ≤ 100
C=CC(=O)N1CC[C@@H](Oc2nc(OC[C@@]34CCCN3C[C@H](F)C4)nc3c(F)c(-c4ccc(F)c5sc(N)c(C#N)c45)ccc23)[C@H]1C [Compound 76, 4-(4-(((2R,3R)-1-acryloyl-2-methylpyrrolidin-3-yl)oxy)-8-fluoro-2-(((2R,7aS)-2-fluorotetrahydro-1H-pyrrolizin-7a (5H)-yl)methoxy)quinazolin-7-yl)-2-amino-7-fluorobenzo[b]thiophene-3-carbonitrile] | A (percent of modification ≥70%) | A (percent of modification ≥70%) | A (percent of modification ≥70%) | ≤ 500 | ≤ 100 | 
C=CC(=O)N1CC[C@@H](Oc2nc(OC[C@@]34CCCN3C[C@H](F)C4)nc3c(Cl)c(-c4ccc(F)c5sc(N)c(C#N)c45)ncc23)[C@H]1C [Compound 106, 4-(4-(((2R,3R)-1-acryloyl-2-methylpyrrolidin-3-yl)oxy)-8-chloro-2-(((2R,7aS)-2-fluorotetrahydro-1H-pyrrolizin-7a (5H)-yl)methoxy)pyrido[4,3-d]pyrimidin-7-yl)-2-amino-7-fluorobenzo[b]thiophene-3-carbonitrile] | A (percent of modification ≥70%) | A (percent of modification ≥70%) | A (percent of modification ≥70%) | ≤ 500 | ≤ 100 | 
C=CC(=O)N1CC[C@@H](Oc2nc(OC[C@@]34CCCN3C[C@H](F)C4)nc3c(F)c(-c4ccc(F)c5sc(N)c(C#N)c45)ccc23)[C@@H]1COC [Compound 125] | D (percent of modification <10%) | D (percent of modification <10%) | C (10%≤modification <50%) | > 20000 | > 1000 | 
C=CC(=O)N1CC[C@@H](Oc2nc(OC[C@@]34CCCN3C[C@H](F)C4)nc3cc(-c4ccc(F)c5sc(N)c(C#N)c45)c(C#N)cc23)[C@@H]1C [Compound 120] | D (percent of modification <10%) | D (percent of modification <10%) | B (50≤percent of modification <70%) | 5000 to 20000 | 100 to 1000 | 
C=CC(=O)N1CC[C@@H](Oc2nc(OC[C@@H]3CCCN3C)nc3c(F)c(-c4ccc(F)c5sc(N)c(C#N)c45)c(C(F)(F)F)cc23)[C@H]1C [Compound 101] | B (50≤percent of modification <70%) | C (10%≤modification <50%) | A (percent of modification ≥70%) | ≤ 500 | ≤ 100 | 
C=CC(=O)N1CC[C@@H](Oc2nc(OC[C@@]34CCCN3C[C@H](F)C4)nc3cc(-c4ccc(F)c5sc(N)c(C#N)c45)c(C(F)(F)F)cc23)[C@H]1C [Compound 98] | B (50≤percent of modification <70%) | C (10%≤modification <50%) | B (50≤percent of modification <70%) | ≤ 500 | 100 to 1000 | 
C=CC(=O)N1CC[C@@H](Oc2nc(OC[C@@]34CCCN3C[C@H](F)C4)nc3c(F)c(-c4ccc(F)c5sc(N)c(C#N)c45)ccc23)[C@H]1COC [Compound 97] | A (percent of modification ≥70%) | A (percent of modification ≥70%) | A (percent of modification ≥70%) | ≤ 500 | ≤ 100 | 
C=CC(=O)N1C[C@H](Oc2nc(OC[C@@]34CCCN3C[C@H](F)C4)nc3c(F)c(-c4ccc(F)c5sc(N)c(C#N)c45)ccc23)C[C@H]1C [Compound 68] | A (percent of modification ≥70%) | C (10%≤modification <50%) | A (percent of modification ≥70%) | ≤ 500 | 100 to 1000 | 
